Test results published in patent US12493045B2, “Multi-target crosslinkers and uses thereof” (The Regents of the University of California, priority 2018, dated 2025).
Positions count from the first letter of the chain named.

How the values were obtained:
[1] = tested on: HEK293T cells; test: Toxicity on incubation with HEK293T cells; assay type: cell-based, mammalian; conditions: 0.6 mM HoQM incubated for different time duration (4 or 8 hr)
[2] = tested on: SSB-19(3×) or SSB-ATC(4×) complex; test: SSB protein-DNA oligo crosslinking (denaturing TBE-urea gel shift); assay type: biochemical; conditions: 19(3×) or ATC(4×) DNA, 1 mM crosslinker, UV 365 nm 15 min
[3] = biological target: Bovine Serum Albumin (BSA) (Bos taurus, UniProt P02769); test: CXMS analysis of cross-linked BSA
Bovine Serum Albumin (BSA), sequence (P02769 25-607): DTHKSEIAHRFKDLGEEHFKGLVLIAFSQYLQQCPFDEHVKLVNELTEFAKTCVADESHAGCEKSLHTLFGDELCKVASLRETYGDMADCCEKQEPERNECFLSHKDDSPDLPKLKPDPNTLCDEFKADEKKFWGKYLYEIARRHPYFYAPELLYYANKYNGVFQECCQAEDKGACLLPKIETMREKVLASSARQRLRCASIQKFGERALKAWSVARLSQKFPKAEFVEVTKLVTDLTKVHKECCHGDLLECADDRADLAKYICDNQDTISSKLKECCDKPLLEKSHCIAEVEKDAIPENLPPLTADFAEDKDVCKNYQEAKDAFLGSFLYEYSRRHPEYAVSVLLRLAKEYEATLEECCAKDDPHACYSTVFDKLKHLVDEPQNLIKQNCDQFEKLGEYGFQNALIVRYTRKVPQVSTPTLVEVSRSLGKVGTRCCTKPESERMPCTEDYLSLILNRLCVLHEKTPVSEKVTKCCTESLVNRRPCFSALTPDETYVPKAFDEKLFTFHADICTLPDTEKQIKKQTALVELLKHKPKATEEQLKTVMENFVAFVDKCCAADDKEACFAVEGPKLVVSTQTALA
Experimental: NHSF Cross-links Bovine Serum Albumin.
BSA: In a 20 μL reaction, 10 μM BSA (69 kDa, in PBS buffer, pH 7.5) was cross-linked at RT for 1 h with 1 mM BS2G or 1 mM NHSF, which corresponded to a 1:100 protein:cross-linker molar ratio. BS2G cross-linking reaction was terminated at RT by adding 20 mM ammonium bicarbonate and incubating for 20 min. NHSF cross-linking reaction was terminated at RT by adding 10 mM Dithiothreitol (DTT) and incubating for 20 min.
Protein digestion. All protein samples were precipitated by six volumes of acetone at −20° C. for 30 min. Precipitated proteins were dried in air and resuspended in 8 M urea, 100 mM Tris, pH 8.5. After reduction with 2 mM DTT for 20 min and alkylation with 10 mM iodoacetamide for 15 min in the dark, samples were diluted to 2 M urea with 100 mM Tris, pH 8.5, and digested with trypsin (at 50:1 protein:enzyme ratio) at 37° C. for 16 h. Digestion was stopped by adding formic acid to 5% final concentration, and digested peptides were desalted with stagetip.
Tandem mass spectrometric analysis. Mass spectrometry experiments were performed using an Orbitrap Fusion Lumos™ instrument (ThermoFisher, San Jose, CA) coupled with an UltiMate™ 3000 nano LC. Mobile phase A and B were water and acetonitrile, respectively, with 0.1% formic acid. […]

[4] = biological target: T1, Glutathione S-Transferase (GST) (Escherichia coli, UniProt P0A9D2); test: Cross-linking of GST (SDS-PAGE, Western blot, CXMS)
T1 sequence (P0A9D2 1-201): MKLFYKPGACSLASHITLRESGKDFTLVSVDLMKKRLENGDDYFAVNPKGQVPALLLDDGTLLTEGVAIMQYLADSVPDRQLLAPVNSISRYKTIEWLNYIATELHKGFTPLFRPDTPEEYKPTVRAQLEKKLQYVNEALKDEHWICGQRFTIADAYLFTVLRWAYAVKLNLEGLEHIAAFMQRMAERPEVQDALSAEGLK
Experimental: NHSF Cross-links Glutathione S-Transferase. To further validate the cross-linking specificity of NHSF, the homodimeric Glutathione S-Transferase (GST) was cross-linked by NHSF or BS2G.
Peptide and protein cross-linking. […] BS2G cross-linking reaction was terminated at RT by adding 20 mM ammonium bicarbonate and incubating for 20 min. NHSF cross-linking reaction was terminated at RT by adding 10 mM Dithiothreitol (DTT) and incubating for 20 min. GST: In a 20 μL reaction, 10 μM GST (23 kDa, in PBS buffer, pH 7.5) was cross-linked at RT for 1 h with 0.5 mM BS2G or 0.5 mM NHSF, which corresponded to a 1:50 protein:cross-linker molar ratio. The cross-linking reactions were similarly terminated as described in the BSA section above.

[5] = tested on: E. coli whole cell lysate; test: CXMS analysis of cross-linked E. coli whole cell lysate; conditions: 10 mg/mL lysate, 40 mM crosslinker, RT 2 h
Experimental: To determine whether NHSF could be used in complex biological samples to generate novel cross-links for MS identification, we applied BS2G and NHSF on E. coli whole cell lysate.
Preparation of E. coli cell lysate. DH10β bacterial cells were cultured overnight. After cells were harvested by centrifugation, cell pellets were washed twice with PBS. Cells were resuspended with lysis buffer (50 mM Hepes, pH 8.3, 150 mM NaCl, 1×EDTA-free Complete Protease Inhibitor Cocktail) and incubate with lysozyme (1 mg/mL), DNase I (0.5 mg/mL) and RNase A (0.1 mg/mL) at 4° C. for 30 min. Cell lysates were sonicated for 3 min with 30% energy and filtrated with Amicon-0.5 ml 10K unit for 3 times.
Peptide and protein cross-linking. […] E. coli cell lysate: 20 uL lysate (10 mg/mL protein, 50 mM Hepes, pH 8.3, 150 mM NaCl) was incubate with 40 mM BS2G or 40 mM NHSF at RT for 2 h. BS2G cross-linking reaction was terminated at RT by adding 100 mM ammonium bicarbonate and incubating for 20 min. NHSF cross-linking reaction was terminated at RT by adding 100 mM DTT and incubating for 20 min.
Protein digestion. All protein samples were precipitated by six volumes of acetone at −20° C. for 30 min. Precipitated proteins were dried in air and resuspended in 8 M urea, 100 mM Tris, pH 8.5. […]

[6] = tested on: peptide 7KR (Ac-AAAKAAR); test: Reaction of crosslinker with model peptide 7KR (mass spectra); assay type: biochemical; conditions: 10 μM peptide, 10 μM crosslinker, PBS pH 7.5, RT 1 h
From the text: Reaction of NHSF with Model Peptide. We first tested the reactivity of NHSF with a model peptide (Ac-AAAKAAR (SEQ ID NO:1), 7KR) with a single Lys as a reactive group, and compared its reactivity towards BS2G (bis(sulfosuccinimidyl) 2,2,4,4-glutarate-d4, FIG. 2A), a commercial NHS-based homo-bifunctional crosslinker of similar length. […] Owing to the low reactivity of sulfonyl-fluorides and the lack of reactive groups in 7KR, additional reaction was not observed with the Arg sidechain.
Peptide and protein cross-linking.

[7] = biological target: epidermal growth factor receptor (EGFR) (Homo sapiens, UniProt P00533); test: Crosslinking of overexpressed EGFR on HEK293T cells (Western blot); conditions: HEK293T overexpressing EGFR, 4 mM NHQM, UV 365 nm 15 min
epidermal growth factor receptor (EGFR), sequence (P00533 25-1210): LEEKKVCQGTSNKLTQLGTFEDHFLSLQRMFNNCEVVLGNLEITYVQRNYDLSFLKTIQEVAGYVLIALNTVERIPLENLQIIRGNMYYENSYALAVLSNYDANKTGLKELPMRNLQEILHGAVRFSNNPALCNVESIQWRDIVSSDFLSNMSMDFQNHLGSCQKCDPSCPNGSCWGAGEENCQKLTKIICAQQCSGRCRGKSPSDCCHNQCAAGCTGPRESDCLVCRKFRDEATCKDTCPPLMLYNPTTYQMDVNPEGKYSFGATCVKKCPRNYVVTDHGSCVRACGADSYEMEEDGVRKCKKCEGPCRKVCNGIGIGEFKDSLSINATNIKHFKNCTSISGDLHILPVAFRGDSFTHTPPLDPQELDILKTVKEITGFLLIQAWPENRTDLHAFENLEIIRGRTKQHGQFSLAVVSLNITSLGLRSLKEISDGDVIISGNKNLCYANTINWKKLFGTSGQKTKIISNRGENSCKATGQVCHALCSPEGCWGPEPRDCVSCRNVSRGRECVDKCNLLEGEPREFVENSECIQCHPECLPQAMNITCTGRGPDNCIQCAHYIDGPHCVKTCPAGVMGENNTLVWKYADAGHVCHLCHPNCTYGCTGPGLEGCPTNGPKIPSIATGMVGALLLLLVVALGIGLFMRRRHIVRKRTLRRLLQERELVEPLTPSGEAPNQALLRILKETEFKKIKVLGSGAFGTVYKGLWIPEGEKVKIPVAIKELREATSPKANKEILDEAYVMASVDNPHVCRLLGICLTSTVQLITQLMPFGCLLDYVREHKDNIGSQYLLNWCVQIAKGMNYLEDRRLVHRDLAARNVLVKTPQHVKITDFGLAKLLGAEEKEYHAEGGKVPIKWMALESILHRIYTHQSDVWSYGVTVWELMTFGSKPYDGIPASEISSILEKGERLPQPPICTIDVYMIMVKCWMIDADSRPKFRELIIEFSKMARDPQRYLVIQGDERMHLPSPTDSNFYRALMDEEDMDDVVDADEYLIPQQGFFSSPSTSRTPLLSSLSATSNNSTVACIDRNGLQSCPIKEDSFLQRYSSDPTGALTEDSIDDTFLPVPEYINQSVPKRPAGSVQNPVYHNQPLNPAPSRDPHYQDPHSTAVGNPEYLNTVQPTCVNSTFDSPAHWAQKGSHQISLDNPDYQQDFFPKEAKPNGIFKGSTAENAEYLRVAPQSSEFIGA
Experimental: We subsequently tested NHQM's crosslinking ability in mammalian cells. […] Therefore, we tested using NHQM to crosslink proteins on mammalian cell surfaces.
Plasmid pCDNA3.1-14-3-3, pCDNA3.1-GST, or pCDNA3.1-EGFR (2 μg each) was transfected into one well of 6-well plate of HEK293T cells, respectively. After transfection, the cells were cultured at 37° C. for additional 24 hr. The cells were harvested and washed with PBS, pH 7.4 for one time, followed by resuspension in 50 μL PBS, pH 7.4. The cells were either added nothing or added with 4 mM NHQM and incubated at RT for 15 min. Then the cells were illuminated with or without UV at wavelength 365 nm for another 15 min. After that, the reaction was treated by adding 100 mM Tris-HCI, pH 7.5 and incubated at RT for 15 min. The samples were then quickly treated with 2×SDS loading dye containing 100 mM DTT, boiled at 95° C. for 5 mins, and analyzed by running Western blot using an anti-His antibody.

[8] = biological target: glutathione transferase (GST) expressed in HEK 293T cells (Escherichia coli, UniProt P0A9D2); test: GST crosslinking in mammalian cells (Western blot); assay type: cell-based; conditions: 4 mM NHQM, UV 365 nm 15 min
[9] = biological target: T2, 14-3-3(QQR) mutant (Homo sapiens, UniProt P63104, A13Q/E14R/L12Q); test: Crosslinking of monomeric 14-3-3(QQR) mutant in vitro (SDS-PAGE); assay type: biochemical; conditions: 0-0.4 mM NHQM, UV 365 nm 15 min
T2 sequence (P63104 1-245 L12Q/A13Q/E14R): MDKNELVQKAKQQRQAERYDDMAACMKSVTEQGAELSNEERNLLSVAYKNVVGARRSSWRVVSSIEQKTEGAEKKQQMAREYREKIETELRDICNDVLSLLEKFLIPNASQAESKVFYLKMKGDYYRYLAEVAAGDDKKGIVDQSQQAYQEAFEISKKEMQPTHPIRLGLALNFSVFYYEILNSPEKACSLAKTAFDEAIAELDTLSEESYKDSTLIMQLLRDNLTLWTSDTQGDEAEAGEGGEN
From the text: (§1) Following crosslinking, NHQM results in a short and rigid linkage, which requires close contact of target residue pairs for effective crosslinking. We therefore tested whether this feature of NHQM could be used to readily determine protein dimerization in vitro and in cell lysates. It has been reported that three mutations (^12LAE^14→^12QQR^14) of 14-3-3 disrupt the dimer interface to form a monomer, leading to a distinct function from WT 14-3-3, such as chaperone activity.^[17] [18] However, previously the 14-3-3(QQR) mutant was isolated from cells and then characterized as a monomer using size exclusion chromatography. This in vitro process is tedious, and the results may not represent what occur in the cellular environment. We first treated purified 14-3-3 WT and QQR mutant with various amounts of NHQM and illuminated with UV light of 365 nm (FIGS. 9A-9B). […] We then applied NHQM directly to cell lysates of E. coli cells expressing either 14-3-3 WT or its QQR mutant, without isolating the 14-3-3 proteins.
(§2) Utilizing NHQM to differentiate 14-3-3 dimer versus monomer.

[10] = biological target: T3, 14-3-3 expressed in HEK293T cells (Homo sapiens, UniProt P63104); test: 14-3-3 crosslinking in mammalian cells (Western blot); conditions: 4 mM NHQM, UV 365 nm 15 min
T3 sequence (P63104 1-245): T2 sequence (P63104 1-245 L12Q/A13Q/E14R) with Q12L, Q13A, R14E
Experimental: We subsequently tested NHQM's crosslinking ability in mammalian cells. We incubated NHQM with live mammalian cells expressing the dimeric glutathione transferase (GST)^[9] or 14-3-3. […] Therefore, we tested using NHQM to crosslink proteins on mammalian cell surfaces. […] In addition, we further explored whether NHQM could probe endogenous mammalian proteins at physiologically relevant conditions. With this aim, we cultured MCF7 cells and treated them with or without NHQM, with or without UV, using the amine-reactive crosslinker bissulfosuccinimidyl suberate (BS^3) as a positive control.
Plasmid pCDNA3.1-14-3-3, pCDNA3.1-GST, or pCDNA3.1-EGFR (2 μg each) was transfected into one well of 6-well plate of HEK293T cells, respectively. After transfection, the cells were cultured at 37° C. for additional 24 hr. The cells were harvested and washed with PBS, pH 7.4 for one time, followed by resuspension in 50 μL PBS, pH 7.4. […] The samples were then quickly treated with 2×SDS loading dye containing 100 mM DTT, boiled at 95° C. for 5 mins, and analyzed by running Western blot using an anti-His antibody.
Plasmid pCDNA3.1-14-3-3 (2 μg) was transfected into one well of 6-well plate of HEK293T cells. […] The samples were then quickly treated with 2×SDS loading dye containing 100 mM DTT, boiled at 95° C. for 5 min, and analyzed with Western blot using an anti-His antibody.

[11] = biological target: Thioredoxin (Trx) (Escherichia coli, UniProt P0AA25); conditions: 1 mM or 10 mM NHQM, UV 365 nm 15 min, E. coli cell lysate
Thioredoxin (Trx), sequence (P0AA25 whole entry): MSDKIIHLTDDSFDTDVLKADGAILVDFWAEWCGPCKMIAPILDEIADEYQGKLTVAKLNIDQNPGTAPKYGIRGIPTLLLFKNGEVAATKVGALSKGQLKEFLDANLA
Experimental: We started by testing NHQM's ability to crosslink interacting proteins in E. coli cell lysates. […] We expressed His-tagged Trx in E. coli cells, and then applied NHQM to the cell lysate followed by UV activation.
Plasmid pBAD-Trx was transformed into BL21(DE3) E. coli cells, and the Trx protein expression was carried out following procedures described above except that the cell culture volume was decreased to 20 mL. After protein expression, the cells were harvested and resuspended in 15 mL 50 mM sodium phosphate buffer containing 200 mM NaCI, pH 7.5. The cells were broken by sonification. 15 μL cell suspension were taken and added with 0, 1, or 10 mM NHQM and incubated at RT for 15 min, followed by UV illumination at wavelength 365 nm for another 15 min. The reaction was then treated by adding 100 mM Tris-HCI, pH 7.5 and incubated at RT for 15 min. The samples were then quickly treated with SDS loading dye containing 100 mM DTT, boiled at 95° C. for 5 min, and then analyzed with Western blot using anti-His antibody.

[12] = biological target: T4, 14-3-3 WT in E. coli cell lysate (Homo sapiens, UniProt P63104); test: Crosslinking of 14-3-3 WT in E. coli cell lysate (Western blot); assay type: biochemical
T4 sequence (P63104 1-245): T2 sequence (P63104 1-245 L12Q/A13Q/E14R) with Q12L, Q13A, R14E
From the text: as §1

[13] = biological target: T5, 14-3-3 QQR mutant in E. coli cell lysate (Homo sapiens, UniProt P63104, A13Q/E14R/L12Q); test: Crosslinking of 14-3-3 QQR mutant in E. coli cell lysate (Western blot); assay type: biochemical
T5 construct: expressed in transfected cells; host or cells: E. coli, cell lysate
T5 sequence (P63104 1-245 L12Q/A13Q/E14R): T2 sequence (P63104 1-245 L12Q/A13Q/E14R)
From the text: as §1

[14] = biological target: T6, WT 14-3-3 protein (Homo sapiens, UniProt P63104); test: Tandem MS (CXMS) of crosslinked 14-3-3; assay type: biochemical
T6 sequence (P63104 1-245): T2 sequence (P63104 1-245 L12Q/A13Q/E14R) with Q12L, Q13A, R14E
Experimental: Tryptic digestion of cross-linked proteins. Protein digestion was carried out by following a procedure described previously.^[28] Briefly, after crosslinking protein samples were quenched by adding 100 mM Tris-HCI, pH 7.4 for 15 min. […] Protein was collected by centrifugation for 10 min at 15,000 g. […] Digestion was terminated by adding formic acid at final concentration 5% (v/v). Digested peptides were desalted with C18 ZipTip, and eluted peptides were dried down with SpeedVac.
Mass spectrometry. Digested peptides were dissolved in 200 mM NH4HCO3 after clean-up and then subject to tandem mass spectrometry on a Thermo Q-Exactive Orbitrap. Crosslinked peptides. Peptides were separated by nano-LC Ultimate 3000 high-performance liquid chromatography system using an Acclaim PepMap C18 column (Thermo Scientific). […] The Q-Exactive mass spectrometer was operated in data-dependent mode with one full MS scan at R=70,000 (m/z=200) followed by ten HCD MS/MS scans at R=17,500 (m/z=200) using a stepped normalized collision energy of 28, 30, 35 eV. The AGC targets for the MS1 and MS2 scans were 3×10^6 and 1×10^5, respectively, and the maximum injection time for MS1 was 250 ms, and for MS2 was 200 ms. Precursors of the +1, +6 or above, or unassigned charge states were rejected; exclusion of isotopes was enabled; dynamic exclusion was set to 30 s. The crosslinking mass spectra were analyzed with pLink 2.3.^[29]

[15] = tested on: SSB protein with viral M13mp18 DNA; test: SSB protein-M13mp18 DNA crosslinking (denaturing TBE-urea gel shift); assay type: biochemical; conditions: 1 mM NHQM, UV 365 nm 15 min
Experimental: that are reported to interact with SSB^[24] [25] The SSB-DNA complex was treated with NHQM and UV activation, and analyzed by denaturing TBE-urea gel shift assay to detect covalent crosslinking between SSB and DNA. […] We further investigated protein-DNA crosslinking by incubating a natural single stranded circular viral DNA M13mp18 with the SSB protein.^[26] As shown in FIG. 21B (also FIGS. 22A-22B), the M13mp18 control DNA run as two isoforms in the denatured TBE-Urea gel due to its large size, a major form remained in the well and a minor form migrating in the gel.

[16] = biological target: endogenous EGFR in MCF7 cells (Homo sapiens, UniProt P00533); test: Crosslinking of endogenous EGFR on mammalian cell surface (Western blot); assay type: cell-based; conditions: BS^3 as positive control
endogenous EGFR in MCF7 cells, sequence (P00533 25-1210): as the sequence (P00533 25-1210) above

[17] = biological target: T7, 14-3-3 protein (WT homodimer) (Homo sapiens, UniProt P63104); test: Dimeric crosslinking of 14-3-3 WT in vitro (SDS-PAGE); assay type: biochemical
T7 sequence (P63104 1-245): T2 sequence (P63104 1-245 L12Q/A13Q/E14R) with Q12L, Q13A, R14E
From the text: We initially designed and synthesized a heterobifunctional crosslinker NHQM containing an NHS ester and a photocaged ortho-quinone methide (o-QM) (FIG. 7A). Two fluorines were installed at the methyl group ortho to the phenolic hydroxyl group, which was photocaged by an o-nitrobenzyl group. When in proximity to proteins, the reactive NHS ester will react with exposed Lys residues, planting the photocaged o-QM next to residues on interaction partners. UV release of o-nitrobenzyl induces elimination of a fluoride ion to generate o-QM spontaneously, which will subsequently crosslink with nearby nucleophilic side chains (FIG. 7A). […] We further studied the crosslinking rate by varying the duration of UV treatment immediately after addition of NHQM.
as §1
NHQM mediated 14-3-3 crosslinking in vitro.
as §2
HoQM mediated 14-3-3 crosslinking in vitro.

O=C(c1ccc(OCc2ccccc2[N+](=O)[O-])c(C(F)F)c1)N1CCN(C(=O)c2ccc(OCc3ccccc3[N+](=O)[O-])c(C(F)F)c2)CC1 [HoQM]
Toxicity to HEK293T cells [1]: without apparent toxicity

O=C(CCCCCCC(=O)ON1C(=O)CC(S(=O)(=O)O)C1=O)ON1C(=O)CC(S(=O)(=O)O)C1=O (stereo not drawn) [BS^3, bissulfosuccinimidyl suberate, reference compound]
SSB-DNA crosslinking (upshifted band) [2]: did not result in SSB-DNA crosslinking

[2H]C([2H])(CC(=O)ON1C(=O)CC(S(=O)(=O)O)C1=O)C([2H])([2H])C(=O)ON1C(=O)CC(S(=O)(=O)O)C1=O (stereo not drawn) [BS2G, bis(sulfosuccinimidyl) 2,2,4,4-glutarate-d4]
Inter-peptide cross-links identified by MS ([3]; 10 μM BSA, 1 mM crosslinker, RT 1 h): 18
Cross-linked peptides exceeding the distance limit ([3]; limit of 20 Å Cα-Cα, BSA structure PDB 3V03): four
Cross-linked peptides identified by MS ([4]; 10 μM GST, 0.5 mM crosslinker, RT 1 h): 15
Cross-links incompatible with the GST structure ([4]; out of 15 cross-links, PDB 1N2A): 6
Inter-linked peptides identified [5]: 106
Products detected after reaction with peptide 7KR [6]: both a mono-linked peptide as well as the cross-linked dimer

O=C(ON1C(=O)CCC1=O)c1ccc(OCc2ccccc2[N+](=O)[O-])c(C(F)F)c1 [NHQM]
EGFR dimer on Western blot [7]: EGFR dimer was detected
Efficiency of dimeric crosslinking of GST in live mammalian cells [8]: < 10%
Crosslinking of 14-3-3 QQR [9]: remained a monomer even at NHQM concentration up to 0.4 mM
Efficiency of dimeric crosslinking of 14-3-3 in live mammalian cells [10]: < 10%
Crosslinking of endogenous proteins to Trx [11]: many endogenous proteins were crosslinked to Trx
Dimeric crosslinking of 14-3-3 WT in cell lysate [12]: crosslinked as dimer
SSB-DNA crosslinking (upshifted band) [2]: upshifted band was only observed for the SSB-19(3×) or SSB-ATC(4×) complex treated with both NHQM and UV light
Dimeric crosslinking of 14-3-3 QQR mutant in cell lysate [13]: not the QQR mutant
Pairs of crosslinked peptides identified ([14]; crosslinked 14-3-3, tandem MS): Eight
Residues crosslinked with Lys ([14]; crosslinked 14-3-3, tandem MS): Arg, Asn, Gln, Glu, Lys, or Ser
Cα-Cα distance of the crosslink exceeding the limit ([14]; limit ~22 Å): 23.7 Å
SSB-M13mp18 crosslinking (upshift of minor form) [15]: only in the presence of both NHQM treatment and UV activation was the minor form of M13mp18 upshifted into the well
Crosslinking efficiency of endogenous EGFR [16]: comparable to the commercial crosslinker BS^3
Crosslinked dimer of 14-3-3 WT versus crosslinker amount ([17]; 0-0.4 mM NHQM, UV 365 nm 15 min): increased with higher NHQM concentration
UV exposure at which crosslinking of 14-3-3 could be observed ([17]; 1 mM NHQM, UV 365 nm, SDS-PAGE): 1 min
Crosslinked dimer of 14-3-3 ([17]; 1 mM crosslinker, with or without UV 365 nm, SDS-PAGE): detected only with addition of NHQM crosslinker and UV illumination
